Like-named read-outs stand apart in the source and are kept apart here.
What was measured:
mCB1R = target: T1, mCB1R (Mus musculus, UniProt P47746); assay: biochemical; assay type: binding
T1 construct: from tissue; host or cells: brain of male C57BL/6J mice

hCB2R = hCB2R (Homo sapiens, UniProt P34972); set-up: expressed in transfected cells; host or cells: Flp-In-293 (Invitrogen #R750-07), pcDNA5/FRT
alpha 1A (h) = target: T2, alpha 1A (h) (Homo sapiens, UniProt P35348); assay: CEREP panel; assay type: binding; conditions: read-out: % inhibition alpha 1A (h)
T2 construct: CEREP
T2 sequence (P35348 1-466): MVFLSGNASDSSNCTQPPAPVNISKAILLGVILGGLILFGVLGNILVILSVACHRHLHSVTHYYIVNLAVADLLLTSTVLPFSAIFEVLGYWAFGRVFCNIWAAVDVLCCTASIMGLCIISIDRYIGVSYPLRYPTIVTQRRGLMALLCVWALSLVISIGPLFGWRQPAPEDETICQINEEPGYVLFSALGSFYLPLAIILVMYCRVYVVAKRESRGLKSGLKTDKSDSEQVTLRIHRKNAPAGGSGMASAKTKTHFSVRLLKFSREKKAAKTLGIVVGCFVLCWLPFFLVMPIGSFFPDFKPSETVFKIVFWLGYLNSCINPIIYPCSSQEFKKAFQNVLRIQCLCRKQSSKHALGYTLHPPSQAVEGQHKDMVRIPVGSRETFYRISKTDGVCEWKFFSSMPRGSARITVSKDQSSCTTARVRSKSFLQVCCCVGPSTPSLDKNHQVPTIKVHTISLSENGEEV

PCP = assay type: binding; conditions: 10 µM
A3 (h) = target: T3, A3 (h) (Homo sapiens, UniProt P0DMS8); assay: CEREP panel; assay type: binding; conditions: read-out: % inhibition A3 (h)
T3 construct: CEREP
T3 sequence (P0DMS8 1-318): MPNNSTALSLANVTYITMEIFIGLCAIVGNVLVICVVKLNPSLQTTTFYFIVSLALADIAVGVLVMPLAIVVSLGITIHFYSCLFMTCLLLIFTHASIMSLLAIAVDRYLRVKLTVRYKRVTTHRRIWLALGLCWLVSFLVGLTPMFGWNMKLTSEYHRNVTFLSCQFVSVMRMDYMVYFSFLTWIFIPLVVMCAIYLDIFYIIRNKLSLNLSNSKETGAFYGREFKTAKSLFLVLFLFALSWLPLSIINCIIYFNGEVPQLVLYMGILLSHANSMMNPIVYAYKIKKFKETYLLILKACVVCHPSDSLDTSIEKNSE

Rat recombinant TRPA1 = target: T4, Rat recombinant TRPA1 (Rattus norvegicus, UniProt Q6RI86); assay: cell-based; assay type: cell-based
T4 construct: expressed in transfected cells

Rat recombinant TRPM8 = target: T5, Rat recombinant TRPM8 (Rattus norvegicus, UniProt Q8R455); assay: TRP channel [Ca2+]i assay; assay type: cell-based; conditions: vs icilin 0.25μM; read-out: TRPM8 IC50 for antagonism of icilin
T5 construct: expressed in transfected cells; host or cells: HEK293 (TRPM8-HEK-293, gift from Mario van der Stelt)
T5 sequence (Q8R455 whole entry): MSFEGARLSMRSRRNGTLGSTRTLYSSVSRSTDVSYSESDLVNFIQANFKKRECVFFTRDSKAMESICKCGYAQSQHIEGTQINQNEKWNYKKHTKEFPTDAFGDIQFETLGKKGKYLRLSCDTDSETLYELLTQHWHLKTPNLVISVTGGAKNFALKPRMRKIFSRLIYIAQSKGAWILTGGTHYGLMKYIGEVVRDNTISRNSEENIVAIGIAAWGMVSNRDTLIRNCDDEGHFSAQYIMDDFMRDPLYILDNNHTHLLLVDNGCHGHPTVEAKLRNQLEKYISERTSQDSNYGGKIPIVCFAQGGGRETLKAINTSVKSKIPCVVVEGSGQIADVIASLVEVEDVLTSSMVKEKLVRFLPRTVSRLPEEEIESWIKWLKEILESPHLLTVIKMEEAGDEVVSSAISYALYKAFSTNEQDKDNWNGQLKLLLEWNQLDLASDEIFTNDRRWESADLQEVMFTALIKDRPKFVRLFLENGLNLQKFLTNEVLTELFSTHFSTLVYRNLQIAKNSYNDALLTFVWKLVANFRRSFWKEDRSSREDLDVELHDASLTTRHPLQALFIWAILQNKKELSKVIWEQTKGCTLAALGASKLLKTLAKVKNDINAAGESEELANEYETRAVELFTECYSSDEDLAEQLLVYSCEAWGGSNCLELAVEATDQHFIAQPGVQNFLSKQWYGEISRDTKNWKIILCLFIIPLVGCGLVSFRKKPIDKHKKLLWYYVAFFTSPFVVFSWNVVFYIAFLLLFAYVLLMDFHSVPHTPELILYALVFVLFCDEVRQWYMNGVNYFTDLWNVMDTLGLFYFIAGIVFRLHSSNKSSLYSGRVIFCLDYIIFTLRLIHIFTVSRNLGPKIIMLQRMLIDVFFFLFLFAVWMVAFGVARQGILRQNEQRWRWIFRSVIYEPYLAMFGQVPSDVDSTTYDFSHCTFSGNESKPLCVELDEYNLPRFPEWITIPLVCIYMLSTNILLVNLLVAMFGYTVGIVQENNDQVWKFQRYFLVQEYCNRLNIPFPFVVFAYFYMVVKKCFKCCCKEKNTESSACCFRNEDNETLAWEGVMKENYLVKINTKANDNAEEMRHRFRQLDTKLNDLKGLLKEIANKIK

T4 sequence (Q6RI86 whole entry): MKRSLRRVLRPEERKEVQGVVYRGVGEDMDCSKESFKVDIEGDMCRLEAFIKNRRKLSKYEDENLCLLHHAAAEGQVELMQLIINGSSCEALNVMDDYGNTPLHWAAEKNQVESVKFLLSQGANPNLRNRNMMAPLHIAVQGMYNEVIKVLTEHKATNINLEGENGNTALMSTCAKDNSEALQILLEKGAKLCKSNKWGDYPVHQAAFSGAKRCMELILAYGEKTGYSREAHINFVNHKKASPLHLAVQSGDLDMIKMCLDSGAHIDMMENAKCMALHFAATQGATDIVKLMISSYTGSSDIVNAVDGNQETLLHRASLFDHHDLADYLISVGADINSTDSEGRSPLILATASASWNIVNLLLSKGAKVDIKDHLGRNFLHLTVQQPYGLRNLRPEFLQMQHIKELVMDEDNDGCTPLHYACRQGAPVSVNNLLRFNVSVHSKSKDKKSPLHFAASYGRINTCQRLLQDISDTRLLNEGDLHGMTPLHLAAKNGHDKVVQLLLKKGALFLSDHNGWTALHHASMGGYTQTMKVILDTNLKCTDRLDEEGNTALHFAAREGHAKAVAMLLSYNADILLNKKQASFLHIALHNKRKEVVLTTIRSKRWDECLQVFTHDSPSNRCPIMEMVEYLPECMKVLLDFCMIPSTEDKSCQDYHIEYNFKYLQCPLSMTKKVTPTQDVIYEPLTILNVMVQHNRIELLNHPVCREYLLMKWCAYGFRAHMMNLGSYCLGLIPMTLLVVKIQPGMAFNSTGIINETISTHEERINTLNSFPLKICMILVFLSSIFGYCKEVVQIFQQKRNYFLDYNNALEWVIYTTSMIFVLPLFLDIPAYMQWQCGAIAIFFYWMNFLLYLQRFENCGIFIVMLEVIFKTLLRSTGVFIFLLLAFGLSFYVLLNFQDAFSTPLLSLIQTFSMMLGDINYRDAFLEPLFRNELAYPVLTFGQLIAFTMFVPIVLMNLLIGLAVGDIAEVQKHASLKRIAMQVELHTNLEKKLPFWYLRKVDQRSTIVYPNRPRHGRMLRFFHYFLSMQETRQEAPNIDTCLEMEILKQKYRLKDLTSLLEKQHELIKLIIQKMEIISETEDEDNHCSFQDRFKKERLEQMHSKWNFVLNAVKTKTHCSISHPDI
Chain of hCB2R (P34972 whole entry): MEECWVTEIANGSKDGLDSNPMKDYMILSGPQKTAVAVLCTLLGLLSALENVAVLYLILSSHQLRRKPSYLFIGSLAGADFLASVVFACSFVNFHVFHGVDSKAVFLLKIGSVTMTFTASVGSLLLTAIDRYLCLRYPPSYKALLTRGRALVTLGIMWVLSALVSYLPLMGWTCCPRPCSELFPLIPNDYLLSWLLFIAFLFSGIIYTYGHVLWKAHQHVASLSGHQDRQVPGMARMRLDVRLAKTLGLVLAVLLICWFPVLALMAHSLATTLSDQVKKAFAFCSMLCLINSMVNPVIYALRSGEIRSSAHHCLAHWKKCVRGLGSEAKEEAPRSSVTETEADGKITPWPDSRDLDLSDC
T1 sequence (P47746 whole entry): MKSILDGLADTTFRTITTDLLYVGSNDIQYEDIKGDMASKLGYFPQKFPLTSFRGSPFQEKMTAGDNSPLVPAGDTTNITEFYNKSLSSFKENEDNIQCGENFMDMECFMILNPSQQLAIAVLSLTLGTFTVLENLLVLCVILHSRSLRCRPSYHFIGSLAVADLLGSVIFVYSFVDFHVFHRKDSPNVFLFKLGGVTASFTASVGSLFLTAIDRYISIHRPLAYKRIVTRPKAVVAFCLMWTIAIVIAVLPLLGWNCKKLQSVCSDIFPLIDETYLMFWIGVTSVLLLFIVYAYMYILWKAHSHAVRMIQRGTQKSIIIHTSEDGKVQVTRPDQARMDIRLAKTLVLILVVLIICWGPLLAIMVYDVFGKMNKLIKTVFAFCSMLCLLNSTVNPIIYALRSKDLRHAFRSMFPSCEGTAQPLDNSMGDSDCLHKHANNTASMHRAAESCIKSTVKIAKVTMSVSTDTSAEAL

Structure (SMILES): CCCCCCC(C)(C)c1ccc([C@@H]2C[C@H](O)CC[C@H]2CCCO)c(O)c1 [CP55940]
- Ki (mCB1R): 0.00158 µM
- GIRK-GTPγS bias factor (BF) (hCB2R): 1.00
- GIRK-GTPγS ΔΔlogR (hCB2R): 0 ± 0.34
- GIRK-cAMP bias factor (BF) (hCB2R): 1.00
- GIRK-cAMP ΔΔlogR (hCB2R): 0 ± 0.12
- GTPγS-cAMP bias factor (BF) (hCB2R): 1.00
- GTPγS-cAMP ΔΔlogR (hCB2R): 0 ± 0.34
- LogR GIRK (hCB2R): 7.863
- RE GIRK (hCB2R): 1.00
- RE GTPγS (hCB2R): 1.00
- RE cAMP (hCB2R): 1.00
- RE pERK (hCB2R): 1.00
- RE β-AR (hCB2R): 1.00
- pERK-GIRK bias factor (BF) (hCB2R): 1.00
- pERK-GIRK ΔΔlogR (hCB2R): 0 ± 0.25
- pERK-GTPγS bias factor (BF) (hCB2R): 1.00
- pERK-GTPγS ΔΔlogR (hCB2R): 0 ± 0.41
- pERK-cAMP bias factor (BF) (hCB2R): 1.00
- pERK-cAMP ΔΔlogR (hCB2R): 0 ± 0.26
- ΔLogR GIRK (hCB2R): 0 ± 0.07
- ΔLogR GTPγS (hCB2R): 0 ± 0.33
- ΔLogR cAMP (hCB2R): 0 ± 0.09
- ΔLogR pERK (hCB2R): 0 ± 0.24
- ΔLogR β-AR (hCB2R): 0 ± 0.07
- β-AR-GIRK bias factor (BF) (hCB2R): 1.00
- β-AR-GIRK ΔΔlogR (hCB2R): 0 ± 0.1
- β-AR-GTPγS bias factor (BF) (hCB2R): 1.00
- β-AR-GTPγS ΔΔlogR (hCB2R): 0 ± 0.34
- β-AR-cAMP bias factor (BF) (hCB2R): 1.00
- β-AR-cAMP ΔΔlogR (hCB2R): 0 ± 0.12
- β-AR-pERK bias factor (BF) (hCB2R): 1.00
- β-AR-pERK ΔΔlogR (hCB2R): 0 ± 0.25
- inhibition at 10 µM (alpha 1A (h); 10 µM): 57%
- % inhibition PCP (PCP): 1%
- inhibition at 10 µM (A3 (h); 10 µM): 98%

Structure (SMILES): CCCCCCC(C)(C)c1cc(OC)c([C@@H]2C=C(CO)[C@@H]3C[C@H]2C3(C)C)c(OC)c1 [HU308]
- Ki (mCB1R): 0.832 µM
- TRPA1 Efficacy (%AITC 100μM) (Rat recombinant TRPA1): 43.1%
- EC50 (Rat recombinant TRPA1; read-out: TRPA1 Potency EC50): 18.5 µM
- IC50 (Rat recombinant TRPA1; vs AITC 100μM, 5 min pre-incubation, read-out: TRPA1 IC50 for antagonism or desensitization): > 100 µM
- IC50 (Rat recombinant TRPM8): > 100 µM
- GIRK-GTPγS bias factor (BF) (hCB2R; hCB2R): 0.56
- GIRK-GTPγS ΔΔlogR (hCB2R; hCB2R): -0.26
- GIRK-cAMP bias factor (BF) (hCB2R; hCB2R): 4.33
- GIRK-cAMP ΔΔlogR (hCB2R; hCB2R): 0.64 ± 0.17
- GTPγS-cAMP bias factor (BF) (hCB2R; hCB2R): 7.78
- GTPγS-cAMP ΔΔlogR (hCB2R; hCB2R): 0.89 ± 0.30
- LogR GIRK (hCB2R; hCB2R): 6.281
- LogR GTPγS (hCB2R; hCB2R): 6.95
- LogR cAMP (hCB2R; hCB2R): 8.49
- LogR pERK (hCB2R; hCB2R): 7.55
- LogR β-AR (hCB2R; hCB2R): 7.72
- pERK-GIRK bias factor (BF) (hCB2R; hCB2R): 1.25
- pERK-GIRK ΔΔlogR (hCB2R; hCB2R): 0.1 ± 0.3
- pERK-GTPγS bias factor (BF) (hCB2R; hCB2R): 0.70
- pERK-GTPγS ΔΔlogR (hCB2R; hCB2R): -0.16
- pERK-cAMP bias factor (BF) (hCB2R; hCB2R): 5.42
- pERK-cAMP ΔΔlogR (hCB2R; hCB2R): 0.73 ± 0.27
- β-AR-GIRK bias factor (BF) (hCB2R; hCB2R): 6.37
- β-AR-GIRK ΔΔlogR (hCB2R; hCB2R): 0.80 ± 0.19
- β-AR-GTPγS bias factor (BF) (hCB2R; hCB2R): 3.54
- β-AR-GTPγS ΔΔlogR (hCB2R; hCB2R): 0.55 ± 0.32
- β-AR-cAMP bias factor (BF) (hCB2R; hCB2R): 27.16
- β-AR-cAMP ΔΔlogR (hCB2R; hCB2R): 1.43 ± 0.16
- β-AR-pERK bias factor (BF) (hCB2R; hCB2R): 5.08
- β-AR-pERK ΔΔlogR (hCB2R; hCB2R): 0.71 ± 0.29
- ΔLogR GIRK (hCB2R; hCB2R, reference CP55940): -1.58
- ΔLogR GTPγS (hCB2R; hCB2R, reference CP55940): -1.33
- ΔLogR cAMP (hCB2R; hCB2R, reference CP55940): -2.22
- ΔLogR pERK (hCB2R; hCB2R, reference CP55940): -1.48
- ΔLogR β-AR (hCB2R; hCB2R, reference CP55940): -0.78
- RE GIRK (hCB2R; hCB2R, relative effectiveness): 0.03
- RE GTPγS (hCB2R; hCB2R, relative effectiveness): 0.05
- RE cAMP (hCB2R; hCB2R, relative effectiveness): 0.006
- RE pERK (hCB2R; hCB2R, relative effectiveness): 0.03
- RE β-AR (hCB2R; hCB2R, relative effectiveness): 0.17
- inhibition at 10 µM (alpha 1A (h)): 2%
- % inhibition PCP (PCP): -9%
- inhibition at 10 µM (A3 (h)): -1%

— PMC5216056 (Nature Communications, 2017)
